The values below come from patent US20040082665A1, “Method for treating stress or tension” (priority 2001, published 2004).

Assay [1] relates to patients. The assay can be described thus: Randomised placebo-controlled double-blind study; ability to tolerate stress by Visual Analogue Scale (VAS). The class given is in vivo. To be noted: tablet. On the procedure: The effects of deramciclane were studied in a randomised placebo-controlled double-blind study. The subjects were randomly assigned to four parallel groups to receive one tablet twice daily (b.i.d) of a placebo, 5 mg (=10 mg/day), 15 mg (=30 mg/day), or 30 mg (=60 mg/day) deramciclane.
The efficacy of deramciclane on the ability to tolerate stress was analysed by the Visual Analogue Scale (VAS).

The subject of assay [2] is patients. As to the kind of experiment: Randomised placebo-controlled double-blind parallel group 8-week study of tension. The assay is classed as in vivo. To be noted: after 8 weeks of treatment; for patients with tension scale number at least 4: placebo 48% at baseline, 12% after 8 weeks; for patients with moderate/severe or very severe other tension: present in all patients at baseline, placebo 43%; for patients with moderate/severe or very severe muscular tension: placebo 82% at baseline, 38% after 8 weeks. An excerpt:
The efficacy and safety of deramciclane was studied in the treatment of tension as compared to placebo. A randomised plasebo-controlled double-blind parallel group 8-week study design was used.
Patients were asked if they had muscular tension (twitchings, stiffness, myoclonic jerks, grinding of teeth, unsteady voice or increased muscular tone) or other tension (feelings of tension, fatigability, startle response, moving to tears easily, trembling, feelings of restlessness or inability to relax). This tension was related to be not present, mild, moderate, severe or very severe.
In addition, patients' tension was also rated with the tension scale 1-6:
2—occasional feelings of edginess and ill defined discomfort
4—continuous feelings of inner tension
6—unrelated dread or anguish

The structures appear in SMILES notation.

With `CN(C)CCO[C@]1(c2ccccc2)C[C@H]2CC[C@]1(C)C2(C)C` [deramciclane, (1R,2S,4R)-(−)-2-phenyl 2-(dimethylaminoethoxy)-1,7,7-trimethyl-bicyclo[2.2.1]heptane], the “ability to tolerate stress better than in patients receiving placebo (VAS)” value in the assay on patients [1] (deramciclane 5 mg b.i.d (=10 mg/day)) stood at 29%; in the assay on patients [1] (deramciclane 15 mg b.i.d (=30 mg/day)), 54%; with patients [1] (deramciclane 30 mg b.i.d. (=60 mg/day)) it was 43%. For the same molecule, the “patients with tension scale number at least 4” value with patients [2] (15 mg bid deramciclane, baseline 35%) was 5%; in the assay with patients [2] (30 mg bid deramciclane, baseline 47%), 11%. Moreover, the entries for the “patients with moderate/severe or very severe other tension” value with patients [2] (15 mg bid deramciclane) and with patients [2] (30 mg bid deramciclane) were 25% and 24%, respectively. The “patients with moderate/severe or very severe muscular tension” value in the assay with patients [2] (15 mg deramciclane bid, baseline 61%) came out at 18%; in the assay with patients [2] (baseline 68%), 15%.
